# According to patent US20250281676A1 (priority 2020, published 2025):
# Experiments:
# carcinomas = details: delivered with pH sensitive hydrogels; cited from earlier work
# tumor = details: delivered by thermosensitive, biodegradable hydrogels; gradual release, local delivery to tumor site; cited from earlier work
# [1] = Net charge and isoelectric point of peptide; format: physicochemical; details: pH 7
# Excerpt: The peptide may be purified. For example, the peptide may be lyophilized. […] Other peptides are within the scope of the disclosure.
# Exemplary peptides having a charge of +5 to +9 include […](d)[…], […] (d)[…], and […] (d)[…]. In other embodiments, the purified peptide may be substantially neutral. […] Net charge may be selected by peptide design. Design of electrostatic charge in the peptide hydrogel may allow control of charge interaction with cell membrane and proteins.
Molecule,tumor size compared to systemic delivery (carcinomas),further results
O=c1[nH]cc(F)c(=O)[nH]1 [5-fluorouracil],significant decrease in tumor size,–
"COc1cccc2c1C(=O)c1c(O)c3c(c(O)c1C2=O)C[C@@](O)(C(=O)CO)C[C@@H]3O[C@H]1C[C@H](N)[C@H](O)[C@H](C)O1 [DOX, Doxorubicin]",–,treatment outcomes compared to systemic treatment modalities (tumor): improved treatment outcomes
CN(C)C(=N)N=C(N)N [metformin],significant decrease in tumor size,–
VEVSVSVEVdPPTEVSVEVEV-NH2,–,net charge [1]: net negative charge
